From the supplement of paper PMC10307832

What was measured:
Assay in all cases: relative viability (nuclei count vs DMSO), 5 days (fraction); higher = more cells survive
[1] = system: LCLC-97TM1
Method in brief: (§1)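 One day after seeding in 1536-well plates, lung cancer cell lines were dosed by pin tool. Dosing was either single-drug or a fixed anchor-drug dose plus five library-drug doses (not always all listed) in √10 steps. After 5 days, nuclei were stained in one fix-and-stain step and counted on 4× images, and relative viability is the nuclei count of treated wells over that of vehicle wells, given as the median of duplicate plates.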

[2] = system: NCI-H460
Method in brief: as §1

[3] = system: LXF-289
Method in brief: as §1

[4] = system: HCC-78
Method in brief: as §1

[5] = system: HOP-62
Method in brief: as §1

[6] = system: A-427
Method in brief: as §1

[7] = system: EPLC-272H
Method in brief: as §1

[8] = system: NCI-H1975
Method in brief: as §1

[9] = system: NCI-H358
Method in brief: as §1

[10] = system: COR-L 105
Method in brief: as §1

[11] = system: NCI-H2170
Method in brief: as §1

[12] = system: HCC-366
Method in brief: as §1

[13] = system: NCI-H1792
Method in brief: as §1

[14] = system: LU99A
Method in brief: as §1

[15] = system: NCI-H1915
Method in brief: as §1

[16] = system: NCI-H1793
Method in brief: as §1

[17] = system: NCI-H1944
Method in brief: as §1

[18] = system: UMC-11
Method in brief: as §1

[19] = system: LC-2-ad
Method in brief: as §1

[20] = system: SK-LU-1
Method in brief: as §1

[21] = system: NCI-H2085
Method in brief: as §1

[22] = system: NCI-H1755
Method in brief: as §1

CC(C)Oc1cc(Nc2nc(N[C@@H](C)c3ccc(F)cn3)ncc2Cl)n[nH]1 [AZ23] + CS(=O)(=O)CCNCc1ccc(-c2ccc3ncnc(Nc4ccc(OCc5cccc(F)c5)c(Cl)c4)c3c2)o1 [Lapatinib] (partner 2 µM)
relative viability ([1]; first compound 0.01 µM): 0.881 | relative viability ([1]; first compound 0.03162 µM): 0.842 | relative viability ([1]; first compound 0.3162 µM): 1.23 | relative viability ([2]; first compound 0.01 µM): 0.519 | relative viability ([2]; first compound 0.03162 µM): 1.1 | relative viability ([2]; first compound 0.3162 µM): 1.5 | relative viability ([3]; first compound 0.01 µM): 1.01 | relative viability ([3]; first compound 0.03162 µM): 0.932 | relative viability ([3]; first compound 0.3162 µM): 0.884 | relative viability ([4]; first compound 0.01 µM): 0.469 | relative viability ([4]; first compound 0.03162 µM): 1 | relative viability ([4]; first compound 0.3162 µM): 0.456 | relative viability ([5]; first compound 0.01 µM): 1.14 | relative viability ([5]; first compound 0.03162 µM): 0.985 | relative viability ([5]; first compound 0.3162 µM): 0.966 | relative viability ([6]; first compound 0.01 µM): 1.24 | relative viability ([6]; first compound 0.03162 µM): 1.02 | relative viability ([6]; first compound 0.3162 µM): 1.03 | relative viability ([7]; first compound 0.01 µM): 0.885 | relative viability ([7]; first compound 0.03162 µM): 1.16 | relative viability ([8]; first compound 0.01 µM): 1.27 | relative viability ([8]; first compound 0.03162 µM): 0.961 | relative viability ([8]; first compound 0.3162 µM): 0.862 | relative viability ([9]; first compound 0.01 µM): 0.505 | relative viability ([9]; first compound 0.03162 µM): 0.433 | relative viability ([9]; first compound 0.3162 µM): 0.392 | relative viability ([10]; first compound 0.01 µM): 0.35 | relative viability ([10]; first compound 0.03162 µM): 0.382 | relative viability ([10]; first compound 0.3162 µM): 0.373 | relative viability ([11]; first compound 0.01 µM): 0.267 | relative viability ([11]; first compound 0.03162 µM): 0.283 | relative viability ([11]; first compound 0.3162 µM): 0.27 | relative viability ([12]; first compound 0.01 µM): 0.905 | relative viability ([12]; first compound 0.03162 µM): 1.52 | relative viability ([12]; first compound 0.3162 µM): 1.11 | relative viability ([13]; first compound 0.01 µM): 1.17 | relative viability ([13]; first compound 0.03162 µM): 1.13 | relative viability ([13]; first compound 0.3162 µM): 0.995 | relative viability ([14]; first compound 0.01 µM): 1.2 | relative viability ([14]; first compound 0.03162 µM): 1.08 | relative viability ([14]; first compound 0.3162 µM): 1.09 | relative viability ([15]; first compound 0.01 µM): 1.12 | relative viability ([15]; first compound 0.03162 µM): 0.972 | relative viability ([15]; first compound 0.3162 µM): 1.01 | relative viability ([16]; first compound 0.01 µM): 0.367 | relative viability ([16]; first compound 0.03162 µM): 0.804 | relative viability ([16]; first compound 0.3162 µM): 0.486 | relative viability ([17]; first compound 0.01 µM): 0.789 | relative viability ([17]; first compound 0.03162 µM): 0.88 | relative viability ([17]; first compound 0.3162 µM): 0.903 | relative viability ([18]; first compound 0.01 µM): 0.946 | relative viability ([18]; first compound 0.03162 µM): 0.994 | relative viability ([18]; first compound 0.3162 µM): 1.02 | relative viability ([19]; first compound 0.01 µM): 1.32 | relative viability ([19]; first compound 0.03162 µM): 0.997 | relative viability ([19]; first compound 0.3162 µM): 0.912 | relative viability ([20]; first compound 0.01 µM): 0.929 | relative viability ([20]; first compound 0.03162 µM): 1.06 | relative viability ([20]; first compound 0.3162 µM): 1.06 | relative viability ([21]; first compound 0.01 µM): 0.771 | relative viability ([21]; first compound 0.03162 µM): 0.735 | relative viability ([21]; first compound 0.3162 µM): 0.772 | relative viability ([22]; first compound 0.01 µM): 1.28 | relative viability ([22]; first compound 0.03162 µM): 1.16 | relative viability ([22]; first compound 0.3162 µM): 1.05
